Test results as given in ChEMBL document CHEMBL1150640, “Tasiamide, a cytotoxic peptide from the marine cyanobacterium Symploca sp” (J Nat Prod, 2002).
Values after ≈ are worked out from the molar mass of the structure shown.

Columns and labels:
LoVo = assay: Cytotoxicity against human LoVo cells; format: functional, cell-based
KB = assay: Cytotoxicity against human KB cells; format: functional, cell-based

CC[C@H](C)[C@H](O)C(=O)N[C@@H](CC(C)C)C(=O)N(C)[C@@H](CCC(N)=O)C(=O)N[C@H](C(=O)NCC(=O)N(C)[C@H](Cc1ccccc1)C(=O)N1CCC[C@H]1C(=O)OC)[C@@H](C)CC [TASIAMIDE]
IC50 (LoVo): 3.47 µg/mL (≈ 4.18 µM) | IC50 (KB): 0.48 µg/mL (≈ 0.578 µM)
